Test system: Japanese patients with advanced solid tumors
Experiment: Phase I dose escalation
Conditions: for Patients with TEAE leading to death: primary reason for death was disease progression

CN1CCC(COc2cnc(-c3cccc(Cn4nc(-c5cccc(C#N)c5)ccc4=O)c3)nc2)CC1 [Tepotinib]
Tepotinib-related TEAE, any grade: Hypoalbuminemia (300 mg once daily (n = 3)): 0 n (%)
Tepotinib-related TEAE, any grade: Hyponatremia (300 mg once daily (n = 3)): 0 n (%)
Tepotinib-related TEAE, any grade: Lipase increase (300 mg once daily (n = 3)): 0 n (%)
Tepotinib-related TEAE, any grade: Nausea (300 mg once daily (n = 3)): 0 n (%)
Tepotinib-related TEAE, any grade: Serum creatinine increase (300 mg once daily (n = 3)): 0 n (%)
Tepotinib-related TEAE, any grade: Stomatitis (300 mg once daily (n = 3)): 0 n (%)
Tepotinib-related TEAE, any grade: Vomiting (300 mg once daily (n = 3)): 0 n (%)
Patients with TEAE leading to death (300 mg once daily (n = 3)): 0 n (%)
Patients with TEAE leading to treatment discontinuation (500 mg once daily (n = 6)): 0 n (%)
Patients with any TEAE (500 mg once daily (n = 6)): 6 n (%)
Patients with any grade ≥3 TEAE (500 mg once daily (n = 6)): 4 n (%)
Patients with any related grade ≥3 TEAE (500 mg once daily (n = 6)): 3 n (%)
Patients with any related serious TEAE (500 mg once daily (n = 6)): 0 n (%)
Patients with any serious TEAE (500 mg once daily (n = 6)): 1 n (%)
Patients with any treatment-related TEAE (500 mg once daily (n = 6)): 3 n (%)
Patients with related TEAE leading to death (500 mg once daily (n = 6)): 0 n (%)
Patients with related TEAE of special interest (lipase or amylase elevation of grade ≥3) (500 mg once daily (n = 6)): 2 n (%)
Tepotinib-related TEAE, Grade 3/4: Hyponatremia (grade 3) (500 mg once daily (n = 6)): 1 n (%)
Tepotinib-related TEAE, Grade 3/4: Lipase increase (grade 4) (500 mg once daily (n = 6)): 2 n (%)
Tepotinib-related TEAE, any grade: Acneiform dermatitis (500 mg once daily (n = 6)): 1 n (%)
Tepotinib-related TEAE, any grade: Amylase increase (500 mg once daily (n = 6)): 2 n (%)
Tepotinib-related TEAE, any grade: Decreased appetite (500 mg once daily (n = 6)): 0 n (%)
Tepotinib-related TEAE, any grade: Dysgeusia (500 mg once daily (n = 6)): 1 n (%)
Tepotinib-related TEAE, any grade: Fatigue (500 mg once daily (n = 6)): 0 n (%)
Tepotinib-related TEAE, any grade: Hypoalbuminemia (500 mg once daily (n = 6)): 2 n (%)
Tepotinib-related TEAE, any grade: Hyponatremia (500 mg once daily (n = 6)): 1 n (%)
Tepotinib-related TEAE, any grade: Lipase increase (500 mg once daily (n = 6)): 2 n (%)
Tepotinib-related TEAE, any grade: Nausea (500 mg once daily (n = 6)): 1 n (%)
Tepotinib-related TEAE, any grade: Serum creatinine increase (500 mg once daily (n = 6)): 1 n (%)
Tepotinib-related TEAE, any grade: Stomatitis (500 mg once daily (n = 6)): 1 n (%)
Tepotinib-related TEAE, any grade: Vomiting (500 mg once daily (n = 6)): 1 n (%)
Patients with TEAE leading to death (500 mg once daily (n = 6)): 1 n (%)
dose-limiting toxicities (DLTs) (215, 300 and 500 mg once daily, cycle 1): No DLTs
Patients with TEAE leading to treatment discontinuation (Total, all doses (n = 12)): 0 n (%)
Patients with any TEAE (Total, all doses (n = 12)): 11 (91.7) n (%)
Patients with any grade ≥3 TEAE (Total, all doses (n = 12)): 7 (58.3) n (%)
Patients with any related grade ≥3 TEAE (Total, all doses (n = 12)): 3 (25.0) n (%)
Patients with any related serious TEAE (Total, all doses (n = 12)): 0 n (%)
Patients with any serious TEAE (Total, all doses (n = 12)): 4 (33.3) n (%)
Patients with any treatment-related TEAE (Total, all doses (n = 12)): 5 (41.7) n (%)
Patients with related TEAE leading to death (Total, all doses (n = 12)): 0 n (%)
Patients with related TEAE of special interest (lipase or amylase elevation of grade ≥3) (Total, all doses (n = 12)): 2 (16.7) n (%)
Tepotinib-related TEAE, Grade 3/4: Hyponatremia (grade 3) (Total, all doses (n = 12)): 1 (8.3) n (%)
Tepotinib-related TEAE, Grade 3/4: Lipase increase (grade 4) (Total, all doses (n = 12)): 2 (16.7) n (%)
Tepotinib-related TEAE, any grade: Acneiform dermatitis (Total, all doses (n = 12)): 1 (8.3) n (%)
Tepotinib-related TEAE, any grade: Amylase increase (Total, all doses (n = 12)): 2 (16.7) n (%)
Tepotinib-related TEAE, any grade: Decreased appetite (Total, all doses (n = 12)): 1 (8.3) n (%)
Tepotinib-related TEAE, any grade: Dysgeusia (Total, all doses (n = 12)): 2 (16.7) n (%)
Tepotinib-related TEAE, any grade: Fatigue (Total, all doses (n = 12)): 2 (16.7) n (%)
Tepotinib-related TEAE, any grade: Hypoalbuminemia (Total, all doses (n = 12)): 2 (16.7) n (%)
Tepotinib-related TEAE, any grade: Hyponatremia (Total, all doses (n = 12)): 1 (8.3) n (%)
Tepotinib-related TEAE, any grade: Lipase increase (Total, all doses (n = 12)): 2 (16.7) n (%)
Tepotinib-related TEAE, any grade: Nausea (Total, all doses (n = 12)): 1 (8.3) n (%)
Tepotinib-related TEAE, any grade: Serum creatinine increase (Total, all doses (n = 12)): 1 (8.3) n (%)
Tepotinib-related TEAE, any grade: Stomatitis (Total, all doses (n = 12)): 1 (8.3) n (%)
Tepotinib-related TEAE, any grade: Vomiting (Total, all doses (n = 12)): 1 (8.3) n (%)
Patients with TEAE leading to death (Total, all doses (n = 12)): 1 (8.3) n (%)
vital signs and other safety observations (all doses): No clinically relevant abnormalities
patients with tepotinib-related TEAEs of any grade (all doses (n = 12)): 41.7%
